Experimental data: patent US20150094264A1, “USE OF OBESTATIN FOR MUSCLE REGENERATION” (UNIVERSIDADE DE SANTIAGO DE COMPOSTELA, priority 2012, published 2015)

Legend:
[1] = test system: damaged tibialis anterior of mouse; assay: Local administration in damaged tibialis anterior of mouse: myogenic markers, immunoblot; format: in vivo, Swiss mice; conditions: 300 nmol/kg weight local, 24 h intervals
Description: FIG. 8. Effect of the exogenous administration of obestatin in the damaged tibialis anterior of mouse (animal model) on the myogenic markers PAX-7 (A), MyoD (B), myogenin (C) and eMHC (D). Effect of the local exogenous administration of obestatin (300 nmol/kg/24 h) on early and later markers of myogenesis in damaged skeletal muscle tissue (tibialis anterior) in mice. The protein levels are expressed as % of the control obtained from the group of animals with administration of PBS (n=10 per group; mean±standard error; *, #, p<0.005).
(§1) The tissue or cell samples were directly lysed in RIPA buffer [Tris-HCl (pH 7.2), 50 mM; NaCl, 150 mM; EDTA, 1 mM; NP-40, 1% (v/v); Sodium deoxycholate, 0.25% (w/v); protease inhibitors (Sigma); phosphatise inhibitors (Sigma)]. The lysates were clarified by centrifugation (14,000×g during 15 min at 4° C.) and the protein concentration was quantified using QuantiPro™ BCA assay kit (Sigma). For immunoblot, equal amounts of protein were loaded which were fractionated in SOS-PAGE gels and transferred to nitrocellulose membranes. The immunoreactive bands were detected by chemiluminescence (Pierce ECL Western Blotting Substrate; Thermo Scientific, Ill., USA).
The mice (30 g; n=50) were maintained in 12 h light-darkness cycled with free access to standard diet and water. To induce the muscle damage, the tibialis anterior muscle (TA) was extracted under anaesthesia and subjected to three cycles of damage due to cold contact applying along the length of the muscle a metal bar cooled in liquid nitrogen. The damaged muscles were treated locally with obestatin injection (300 nmol/kg weight) or the corresponding vehicle (PBS; control) during the times indicated in 24 h intervals. The animals were assigned to one of the five experimental groups (n=10/group): 1) control group (saline); 2) obestatin group 48 h (obestatin 300 nmol/kg weight/24 h); 3) obestatin group 96 h (obestatin 300 nmol/kg weight/24 h); 4) obestatin group 168 h (obestatin 300 nmol/kg weight/24 h); and, obestatin group 240 h (obestatin 300 nmol/kg weight/24 h). After the indicated times, the mice were sacrificed by cervical dislocation under anaesthetic treatment and the tissues were extracted for immunoblot and immunohistochemical analyses.
The estimate of the therapeutic potential of obestatin as muscle regenerator agent was assessed in Swiss mice wherein muscle damage was induced in the tibialis anterior and obestatin (300 nmol/kg weight) or the corresponding vehicle (PBS) was later locally administered. The muscles were extracted and analysed by immunoblot 48, 96, 168 and 240 h after the treatment (n=5 per study time).

[2] = test system: skeletal muscle tissue (gastrocnemius and soleus) in male rats; assay: Chronic administration by osmotic mini-pumps: myogenic markers in gastrocnemius and soleus of rat, immunoblot; format: in vivo, Sprague-Dawley rats; conditions: 300 nmol/kg body weight/24 h s.c. infusion, 72 h
Description: FIG. 7. Effect of the chronic administration of obestatin on the myogenic markers in the gastrocnemius and soleus of rat (animal model). Effect of the administration during 72 hours of obestatin (300 nmol/kg/24 h; 72 h) by the implantation of mini-pumps on early and later markers of myogenesis in skeletal muscle tissue (gastrocnemius and soleus) in male rats. A: Western-blot analysis. First column: control; second column: treatment with obestatin. B: Protein levels in gastrocnemius. White column: control; grey column: treatment with obestatin. The protein levels are expressed as % of the control obtained from the group of animals with implantation of mini-pumps with saline (n=10 per group; mean±standard error; *, p<0.05). C: Protein levels in soleus. White column: control; grey column: treatment with obestatin. The protein levels are expressed as % of the control obtained from the group of animals with implantation of mini-pumps with saline (n=10 per group; mean±standard error; *, p<0.05).
as §1
Two animal models were used for the in vivo assays: Sprague-Dawley rats and Swiss mice. The Sprague-Dawley (250 g; n=20) rats were maintained in 12 h light-darkness cycled with free access to standard diet and water. The Alzet® mini-pumps (model 1003D) were subcutaneously implanted. The animals were assigned to one of the two experimental groups (n=10/group): 1) control group (mini-pumps with saline); and, 2) obestatin group (mini-pumps implanted containing 300 nmol/kg weight/24 h). These mini-pumps allow a diffusion flow of 1 microL/h. After 72 h, the rats were sacrificed by cervical dislocation under anaesthetic treatment, and soleus and gastrocnemius tissues were extracted for immunoblot analysis.
Based on the short mean life of obestatin in plasma, osmotic mini-pumps were used for the in vivo administration of this peptide. Two groups of male rats were worked with: a group of 10 male rats received the continuous subcutaneous infusion of obestatin during 72 h (300 nmol/kg body weight/24 h); and another group of 10 rats received the equivalent volume of PBS during 72 h. The animals were sacrificed and the gastrocnemius and soleus muscles were removed and processed to analyse the expression of key factors of muscular differentiation by immunoblot. […] The increase in both types of muscle of the family of regulatory factors of different stages in myogenesis show a clear muscle regenerative capacity for obestatin.

L6E9 myoblasts = assay: Cicatrization capacity (migration/invasion) in L6E9 myoblasts; format: cell-based, rat; conditions: obestatin 5 nM
Description: FIG. 6. Evaluation of the cicatrization capacity (migration/invasion) of obestatin in L6E9 myoblasts. A: the L6E9 myoblasts grew to 100% of confluence in GM and later the damage was induced with a sterile pipette. The cells were maintained in GM or GM-obestatin (5 nM) during 8 and 24 hours after the induction of cell damage (40× magnification). B: quantification of the % of cicatrization (mean±standard error; *, p<0.05).
The L6E9 cells were cultured until reaching a confluence of 100% in GM. Having reached said confluence, the damage was produced by the use of a sterile pipette point which made it possible to perform two linear and perpendicular channels. After the damage, the cells were washed and cultured with GM or GM+obestatin (5 nM). The progress of the migration was immediately photographed after the damage and at 8 and 24 hours, close to the crossing point. The “invaded” area was calculated by tracing the “cicatrization” edge and using ImageJ64 software. The percentage of cicatrization was calculated based on the following equation:% cicatrization=[(area 0 h−area xh)/area 0 h]×100.

## obestatin
[1]
  expression times of each of the factors analysed (Pax-7, MyoD, myogenin, eMHC): acceleration
[1]; 48, 96, 168 and 240 h
  MyoD levels in treated muscles in relation to control muscles: significantly higher
  Pax-7 levels in treated muscles in relation to control muscles: significantly higher
  eMHC levels in treated muscles in relation to control muscles: significantly higher
  myogenin levels in treated muscles in relation to control muscles: significantly higher
[2]; gastrocnemius and soleus
  MHC protein levels in relation to control rats: significantly increased
  Myf5 protein levels in relation to control rats: significantly increased
  Myf6 protein levels in relation to control rats: significantly increased
  MyoD protein levels in relation to control rats: significantly increased
  Pax-7 protein levels in relation to control rats: significantly increased
  myogenin protein levels in relation to control rats: significantly increased
[2]; gastrocnemius
  Six-1 protein levels in relation to control rats: no effect at all
[2]; soleus
  Six-1 protein levels in relation to control rats: significant increased
L6E9 myoblasts; 8 hours after inducing cell damage
  increase of migration index (cicatrization) in relation to control cells: 53%
L6E9 myoblasts; 24 hours after inducing cell damage
  increase of migration index (cicatrization) in relation to control cells: 21%
